Among the test systems are A498; HCT-116; HOP-62; HOP-92; IGROV-1; K562; LXFL 529; MOLT-4; SF-295; SK-MEL-2; SK-OV-3; SN12C; SNB-75; U-251; UO-31; NCI-H226; NCI/ADR-RES; PC-3; SR.
What all share (assay): NCI anticancer screen, dose series, 48 h

SMILES strings stand for the structures.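 Cells were grown in 96-well plates and exposed to each compound for 48 hours at five concentrations; endpoints were interpolated linearly between bracketing concentrations, or set to the highest concentration if not reached. GI50: concentration for 50% inhibition of growth.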 Active and inactive are the calls of the source. Rule as the data show it: active = GI50 up to about 1.1 µM and inactive = higher. Bounds are passed on as bounds.

For the compound `C[C@]12CC/C(=N\O)C=C1CC[C@@H]1C2CC[C@@]2(C)C1CC[C@@H]2OC1CCCCO1` (some centres not stated), the GI50 with A498 is > 100 µM (inactive); with HCT-116 it was 20.1 µM (inactive); in the experiment on HOP-62 it was 31.2 µM (inactive); in the experiment with HOP-92, 17.7 µM (inactive); in the experiment on IGROV-1, 35.6 µM (inactive); in the experiment on K562, 19 µM (inactive). The GI50 is 17.2 µM (inactive) with LXFL 529; 12.4 µM (inactive) with MOLT-4; 18.5 µM (inactive) in the experiment with SF-295; 16.7 µM (inactive) in the experiment with SK-MEL-2; 21.9 µM (inactive) in the experiment with SK-OV-3; > 10 µM (inactive) with SN12C. For the same compound, the values for the GI50 in the experiment on SNB-75, in the experiment with U-251 and with UO-31 were 18.9 µM (inactive), 17.9 µM (inactive) and 21.7 µM (inactive), respectively.

For the compound `Cc1nc(Nc2ccc(Cl)cc2Cl)sc1C(=O)Nc1ccccc1`, the GI50 in the experiment on A498 is > 100 µM (inactive); in the experiment on HCT-116 it was 35.1 µM (inactive); with HOP-62, 81.1 µM (inactive); in the experiment on HOP-92 it was 31.3 µM (inactive); in the experiment with IGROV-1 it was 63.4 µM (inactive); with K562 it was 24 µM (inactive). Further, the GI50 is 10.9 µM (inactive) in the experiment with MOLT-4; < 0.01 µM (active) in the experiment on NCI-H226; 96.6 µM (inactive) in the experiment on NCI/ADR-RES; 31 µM (inactive) in the experiment on PC-3; 29.9 µM (inactive) in the experiment with SF-295; 39.8 µM (inactive) in the experiment with SK-MEL-2. The GI50 was > 100 µM (inactive) with SK-OV-3; > 100 µM (inactive) with SN12C; 39 µM (inactive) with SNB-75; 28.2 µM (inactive) in the experiment with SR; 25.9 µM (inactive) in the experiment on U-251; 29.6 µM (inactive) in the experiment with UO-31.

For the compound `CSc1c([S+](C)[O-])[nH]c2cc(Br)cc(Br)c12` (configuration not stated), the GI50 in the experiment with A498 is 22.1 µM (inactive); in the experiment on HCT-116, 17.6 µM (inactive); in the experiment with HOP-92, 10.9 µM (inactive); with IGROV-1 it was 37.1 µM (inactive); in the experiment on K562, 24.2 µM (inactive); with LXFL 529 it was 21.1 µM (inactive). Also, the GI50 is 18.1 µM (inactive) in the experiment on MOLT-4; 27.4 µM (inactive) in the experiment on NCI-H226; 17.1 µM (inactive) in the experiment with SF-295; 27.9 µM (inactive) in the experiment with SK-OV-3; 16.7 µM (inactive) in the experiment with SN12C; 17.3 µM (inactive) with SNB-75. The GI50 in the experiment on U-251 is 0.0376 µM (active); with UO-31 it was 23.4 µM (inactive).

Consider `COc1ccc(CSC2=C(C#N)C(=O)NC3(CCCCC3)S2)cc1`, for which the GI50 in the experiment on A498 is > 63.5 µM (inactive); in the experiment on HCT-116, 44.5 µM (inactive); in the experiment on HOP-62, 61.8 µM (inactive); in the experiment with HOP-92 it was > 55.7 µM (inactive); in the experiment on IGROV-1, > 69.7 µM (inactive); in the experiment on K562, > 50 µM (inactive). The GI50 with MOLT-4 was 36.9 µM (inactive); in the experiment with NCI-H226 it was > 100 µM (inactive); in the experiment with NCI/ADR-RES, 49.7 µM (inactive); with PC-3, 74.8 µM (inactive); with SF-295, 51.6 µM (inactive); in the experiment with SK-MEL-2, 38.6 µM (inactive). The GI50 is 44.7 µM (inactive) in the experiment on SK-OV-3; 65.2 µM (inactive) in the experiment with SN12C; 62.2 µM (inactive) in the experiment with SNB-75; 71.3 µM (inactive) in the experiment on SR; 48.4 µM (inactive) with U-251; 96.4 µM (inactive) with UO-31.

`CN(C)CCCNC(=O)c1cc(NC(=O)c2cc(NS(=O)(=O)c3ccc4c(c3)C(=O)c3ccccc3C4=O)cn2C)cn1C`: the GI50 with A498 was > 100 µM (inactive); in the experiment on HCT-116, > 100 µM (inactive); with HOP-62 it was > 100 µM (inactive); in the experiment on HOP-92 it was > 100 µM (inactive); in the experiment with IGROV-1, > 100 µM (inactive); in the experiment with K562 it was 52.6 µM (inactive). In addition, the GI50 is 24 µM (inactive) in the experiment on MOLT-4; > 100 µM (inactive) with NCI-H226; > 100 µM (inactive) in the experiment on NCI/ADR-RES; > 100 µM (inactive) with PC-3; > 100 µM (inactive) in the experiment on SF-295; > 100 µM (inactive) in the experiment with SK-MEL-2. The GI50 with SK-OV-3 was < 0.01 µM (active); in the experiment with SN12C, > 100 µM (inactive); in the experiment on SNB-75, > 100 µM (inactive); with SR, 27 µM (inactive); in the experiment on U-251 it was 81.3 µM (inactive); in the experiment with UO-31, > 100 µM (inactive).

Consider `O=[N+]([O-])c1cc(C2ON=C(c3ccccc3)N2C23CC4CC(CC(C4)C2)C3)ccc1Cl` (configuration not stated), for which the GI50 in the experiment on A498 is > 100 µM (inactive); with HCT-116 it was 73.5 µM (inactive); in the experiment on HOP-62 it was > 100 µM (inactive); in the experiment on HOP-92, > 100 µM (inactive); in the experiment on IGROV-1, > 100 µM (inactive); in the experiment with K562 it was > 100 µM (inactive). The GI50 in the experiment with MOLT-4 was > 100 µM (inactive); in the experiment on NCI-H226, 49.5 µM (inactive); with NCI/ADR-RES, > 100 µM (inactive); with PC-3, > 100 µM (inactive); in the experiment with SF-295, > 100 µM (inactive); in the experiment with SK-MEL-2, > 100 µM (inactive). Besides, the GI50 in the experiment on SK-OV-3 was > 100 µM (inactive); in the experiment with SN12C it was > 100 µM (inactive); in the experiment on SNB-75, 15.5 µM (inactive); in the experiment on SR it was > 100 µM (inactive); in the experiment with U-251 it was > 100 µM (inactive); in the experiment on UO-31 it was > 100 µM (inactive).

`CCC[C@H](O)[C@@H](CNc1cc(NC(C)=O)nc(NC(C)=O)n1)N(Cc1ccccc1)Cc1ccccc1`: the GI50 was 30.8 µM (inactive) with A498; 16.6 µM (inactive) in the experiment on HCT-116; 15.2 µM (inactive) in the experiment on HOP-62; 34.4 µM (inactive) in the experiment on HOP-92; 12.8 µM (inactive) in the experiment on IGROV-1; > 100 µM (inactive) with K562. Besides, the GI50 with MOLT-4 is 4.47 µM (inactive); in the experiment on NCI-H226, 14.3 µM (inactive); in the experiment on NCI/ADR-RES, 19.3 µM (inactive); with PC-3, 13.5 µM (inactive); in the experiment with SF-295, 6.44 µM (inactive); in the experiment with SK-MEL-2 it was 27.4 µM (inactive). For the same compound, the GI50 in the experiment on SK-OV-3 is 19.8 µM (inactive); with SN12C it was 41.3 µM (inactive); in the experiment on SNB-75 it was 13.2 µM (inactive); with SR, 49.5 µM (inactive); in the experiment with U-251 it was 47 µM (inactive); in the experiment on UO-31 it was 18.1 µM (inactive).

`CC(C)Cc1c(C#N)c(C#N)c(N)n1Cc1ccccc1`: the GI50 in the experiment on A498, in the experiment with HCT-116, in the experiment with HOP-62, with HOP-92, in the experiment with IGROV-1 and in the experiment on K562 was > 100 µM (inactive) each time. Further, the GI50 in the experiment with MOLT-4, in the experiment with NCI-H226, in the experiment on NCI/ADR-RES, in the experiment on PC-3, in the experiment with SF-295 and in the experiment on SK-MEL-2 was > 100 µM (inactive) throughout. Further, the GI50 with SK-OV-3 was > 100 µM (inactive); with SN12C it was > 100 µM (inactive); in the experiment on SNB-75, 40.8 µM (inactive); in the experiment with SR, > 100 µM (inactive); in the experiment with U-251 it was > 100 µM (inactive); in the experiment on UO-31 it was > 100 µM (inactive).

The values above are taken from ChEMBL document CHEMBL1201862, “PubChem BioAssay data set” (2004).
